According to publication PMC11563544 (Journal of Cerebral Blood Flow & Metabolism, 2024):

Tested on: alpha-2C adrenergic receptor (α2CR)
Test: in vivo PET receptor occupancy, competition with […]ORM-13070
Set-up: species or system Macaca fascicularis

EC50: 33.39 ± 11.91 ng/mL
Substance: BAY 292
